Source: US10030047B2 (Hoffmann-La Roche Inc., priority 2015, dated 2018)
Converted amounts (≈) assume the structure as drawn.

Tested on: A. baumannii strain ATCC19606
Assay: Minimum inhibitory concentration (MIC) determination, microbroth dilution (CLSI)
Assay type: cell-based
Settings: Acinetobacter baumannii; A. baumannii ATCC19606; CAMHB; read after 20 hours; >=80% growth inhibition; read-out: ATCC19606 MIC
Method: The in vitro antimicrobial activity of the compounds was determined through microbroth minimum inhibitory concentration (MIC) methodology performed according to the Clinical and Laboratory Standard Institute guidelines (CLSI—M07-A9 Jan. 2012. Methods for Dilution Antimicrobial Susceptibility Tests for Bacteria That Grow Aerobically; Approved Standard—Ninth Edition, Clinical and Laboratory Standards Institute, Wayne/PA, US and the CLSI—M100-S24 Jan. 2014. Performance Standards for Antimicrobial Susceptibility Testing; Approved Standard—Fourth Informational Supplement, Clinical and Laboratory Standards Institute, Wayne/PA, US).
The compound stock solution was freshly prepared at 10× the required top concentration for the MIC determination, i.e. at 1280 mg/L, by reconstitution of the dry compound in 50:50 water:DMSO.
Polystyrene non-treated 96 wells microtiter plates were used for preparing panel containing compound serial twofold diluted at two times the final testing concentration (e.g. range from 64 to 0.06 μg/ml) in cation adjusted Mueller Hinton broth medium (CAMHB).
Inoculum was prepared by the “direct colony suspension method”. Colonies of A. baumannii ATCC19606 or clinical isolates were suspended in saline solution and adjusted to 0.5 McFarland, diluted 100 times in CAMHB broth and 50 μl added to each well (final concentration of cells ˜5×10^(5) CFU/ml and Final volume/well of 100 μl). Microtiter plates were sealed and incubated at 35±2° C.
MICs values were read after 20 hours of incubation and recorded as the lowest concentration of the antimicrobial that inhibits more or equal to 80% of growth of the organism as detected by the unaided eye and using a microtiter plate optical density reader (OD 600 nm).
Tables 2, 3, 4 and 5 provide the minimum inhibitory concentration (MIC) in microgram per milliliter of the compounds of present invention obtained against the A. baumannii strain ATCC19606 (Tables 2, 3, 4 and 5).

Row | MIC | Compound
1 | 2 µg/mL (≈ 2.75 µM) | C[C@H](O)[C@@H]1NCc2cccnc2Sc2c(Cl)cc(Cl)cc2CNC(=O)[C@H](Cc2c[nH]c3ccccc23)N(C)C(=O)[C@H](CCCCN)NC1=O [Example 106, (11S,14S,17S)-14-(4-Amino-butyl)-23,25-dichloro-11-((S)-1-hydroxy-ethyl)-17-(1H-indol-3-ylmethyl)-16-methyl-2-thia-4,10,13,16,19-pentaaza-tricyclo[19.4.0.0*3,8*]pentacosa-1(25),3,5,7,21,23-hexaene-12,15,18-trione]
2 | 0.5 µg/mL (≈ 0.633 µM) | CN1C(=O)[C@H](CCCCN)NC(=O)[C@H](CCCN)NCc2cccnc2Sc2c(Cl)cc(N3CCOCC3)cc2CNC(=O)[C@@H]1Cc1c[nH]c2ccccc12 [Example 92, (11S,14S,17S)-14-(4-Amino-butyl)-11-(3-amino-propyl)-25-chloro-17-(1H-indol-3-ylmethyl)-16-methyl-23-morpholin-4-yl-2-thia-4,10,13,16,19-pentaaza-tricyclo[19.4.0.0*3,8*]pentacosa-1(25),3,5,7,21,23-hexaene-12,15,18-trione]
3 | 8 µg/mL (≈ 9.82 µM) | CN1C(=O)[C@H](CCCCN)NC(=O)[C@H](CCCN)NCc2cccnc2Sc2c(cc(-c3ccccc3)cc2C(F)(F)F)CNC(=O)[C@@H]1Cc1c[nH]c2ccccc12 [Example 87, (11S,14S,17S)-14-(4-Amino-butyl)-11-(3-amino-propyl)-17-(1H-indol-3-ylmethyl)-16-methyl-23-phenyl-25-trifluoromethyl-2-thia-4,10,13,16,19-pentaaza-tricyclo[19.4.0.0*3,8*]pentacosa-1(25),3,5,7,21,23-hexaene-12,15,18-trione]
4 | 2 µg/mL (≈ 2.51 µM) | CN1C(=O)[C@H](CCCCN)NC(=O)[C@H](CCCN)NCc2cccnc2Sc2c(Cl)cc(-c3ccc(N)nc3)cc2CNC(=O)[C@@H]1Cc1c[nH]c2ccccc12 [Example 109, (11S,14S,17S)-14-(4-Amino-butyl)-11-(3-amino-propyl)-23-(6-amino-pyridin-3-yl)-25-chloro-17-(1H-indol-3-ylmethyl)-16-methyl-2-thia-4,10,13,16,19-pentaaza-tricyclo[19.4.0.0*3,8*]pentacosa-1(25),3(8),4,6,21,23-hexaene-12,15,18-trione]
5 | 0.5 µg/mL (≈ 0.681 µM) | COc1cc(Cl)c2c(c1)CNC(=O)[C@H](Cc1c[nH]c3ccccc13)N(C)C(=O)[C@H](CCCCN)NC(=O)[C@H](CCCN)NCc1ccccc1S2 [Example 49, (12S,15S,18S)-15-(4-Amino-butyl)-18-(3-amino-propyl)-4-chloro-12-(1H-indol-3-ylmethyl)-6-methoxy-13-methyl-2-thia-10,13,16,19-tetraaza-tricyclo[19.4.0.0*3,8*]pentacosa-1(25),3,5,7,21,23-hexaene-11,14,17-trione]
6 | 1 µg/mL (≈ 1.29 µM) | CN1C(=O)[C@H](CCCCN)NC(=O)[C@H](CCCN)NCc2ccccc2Sc2c(cc(Cl)cc2C(F)(F)F)CNC(=O)[C@@H]1Cc1c[nH]c2ccccc12 [Example 31, (12S,15S,18S)-15-(4-Amino-butyl)-18-(3-amino-propyl)-6-chloro-12-(1H-indol-3-ylmethyl)-13-methyl-4-trifluoromethyl-2-thia-10,13,16,19-tetraaza-tricyclo[19.4.0.0*3,8*]pentacosa-1(25),3,5,7,21,23-hexaene-11,14,17-trione]
7 | 32 µg/mL (≈ 40.2 µM) | Cc1cc(-c2ccc(Cl)c3c2CNC(=O)[C@H](Cc2c[nH]c4ccccc24)N(C)C(=O)[C@H](CCCCN)NC(=O)[C@H](CCCN)NCc2cccnc2S3)ccn1 [Example 212, (11S,14S,17S)-14-(4-Amino-butyl)-11-(3-amino-propyl)-25-chloro-17-(1H-indol-3-ylmethyl)-16-methyl-22-(2-methyl-pyridin-4-yl)-2-thia-4,10,13,16,19-pentaaza-tricyclo[19.4.0.0*3,8*]pentacosa-1(25),3(8),4,6,21,23-hexaene-12,15,18-trione]
8 | 4 µg/mL (≈ 5.05 µM) | CN1C(=O)[C@H](COCCN)NC(=O)[C@H](COCCN)NCc2cccnc2Sc2c(Cl)ccc(C(F)(F)F)c2CNC(=O)[C@@H]1Cc1c[nH]c2ccccc12 [Example 119, (11S,14S,17S)-11,14-Bis-(2-amino-ethoxymethyl)-25-chloro-17-(1H-indol-3-ylmethyl)-16-methyl-22-trifluoromethyl-2-thia-4,10,13,16,19-pentaaza-tricyclo[19.4.0.0*3,8*]pentacosa-1(25),3,5,7,21,23-hexaene-12,15,18-trione]
9 | 1 µg/mL (≈ 1.25 µM) | CN1C(=O)[C@H](CCCCN)NC(=O)[C@H](CCCN)NCc2cccnc2Sc2c(Cl)cc(-c3ccnc(N)c3)cc2CNC(=O)[C@@H]1Cc1c[nH]c2ccccc12 [Example 223, (11S,14S,17S)-14-(4-Amino-butyl)-11-(3-amino-propyl)-23-(2-amino-pyridin-4-yl)-25-chloro-17-(1H-indol-3-ylmethyl)-16-methyl-2-thia-4,10,13,16,19-pentaaza-tricyclo[19.4.0.0*3,8*]pentacosa-1(21),3,5,7,22,24-hexaene-12,15,18-trione]
10 | 2 µg/mL (≈ 2.5 µM) | Cc1n[nH]c(C)c1-c1cc(Cl)c2c(c1)CNC(=O)[C@H](Cc1c[nH]c3ccccc13)N(C)C(=O)[C@H](CCCCN)NC(=O)[C@H](CCCN)NCc1cccnc1S2 [Example 175, (11S,14S,17S)-14-(4-Amino-butyl)-11-(3-amino-propyl)-25-chloro-23-(3,5-dimethyl-1H-pyrazol-4-yl)-17-(1H-indol-3-ylmethyl)-16-methyl-2-thia-4,10,13,16,19-pentaaza-tricyclo[19.4.0.0*3,8*]pentacosa-1(25),3(8),4,6,21,23-hexaene-12,15,18-trione]
11 | 0.12 µg/mL (≈ 0.162 µM) | CN1C(=O)[C@H](CCCCN)NC(=O)[C@H](CCCN)NCc2cccnc2Sc2c(Cl)cc(Cl)cc2CNC(=O)[C@@H]1Cc1c[nH]c2ccccc12 [Example 67, (11S,14S,17S)-14-(4-Amino-butyl)-11-(3-amino-propyl)-23,25-dichloro-17-(1H-indol-3-ylmethyl)-16-methyl-2-thia-4,10,13,16,19-pentaaza-tricyclo[19.4.0.0*3,8*]pentacosa-1(25),3,5,7,21,23-hexaene-12,15,18-trione]
12 | 32 µg/mL (≈ 43.3 µM) | CC(C)C[C@@H]1NCc2cccnc2Sc2c(Cl)cc(Cl)cc2CNC(=O)[C@H](Cc2c[nH]c3ccccc23)N(C)C(=O)[C@H](CCCCN)NC1=O [Example 101, (11S,14S,17S)-14-(4-Amino-butyl)-23,25-dichloro-17-(1H-indol-3-ylmethyl)-11-isobutyl-16-methyl-2-thia-4,10,13,16,19-pentaaza-tricyclo[19.4.0.0*3,8*]pentacosa-1(25),3,5,7,21,23-hexaene-12,15,18-trione]
13 | 0.25 µg/mL (≈ 0.316 µM) | CN1C(=O)[C@H](CCCCN)NC(=O)[C@H](CCCN)NCc2cccnc2Sc2c(Cl)ccc(C(F)(F)F)c2CNC(=O)[C@@H]1Cc1c[nH]c2ccc(F)cc12 [Example 131, (11S,14S,17S)-14-(4-Amino-butyl)-11-(3-amino-propyl)-25-chloro-17-(5-fluoro-1H-indol-3-ylmethyl)-16-methyl-22-trifluoromethyl-2-thia-4,10,13,16,19-pentaaza-tricyclo[19.4.0.0*3,8*]pentacosa-1(25),3,5,7,21,23-hexaene-12,15,18-trione]
14 | 0.5 µg/mL (≈ 0.635 µM) | CN1C(=O)[C@H](CCCCN)NC(=O)[C@H](CCCN)NCc2cccnc2Sc2c(Cl)cc(C3=CCOCC3)cc2CNC(=O)[C@@H]1Cc1c[nH]c2ccccc12 [Example 138, (11S,14S,17S)-14-(4-Amino-butyl)-11-(3-amino-propyl)-25-chloro-23-(3,6-dihydro-2H-pyran-4-yl)-17-(1H-indol-3-ylmethyl)-16-methyl-2-thia-4,10,13,16,19-pentaaza-tricyclo[19.4.0.0*3,8*]pentacosa-1(25),3(8),4,6,21,23-hexaene-12,15,18-trione]
15 | 0.5 µg/mL (≈ 0.617 µM) | CN1C(=O)[C@H](CCCCN)NC(=O)[C@H](Cc2cncn2C)NCc2cccnc2Sc2c(Cl)cc(C(F)(F)F)cc2CNC(=O)[C@@H]1Cc1c[nH]c2ccccc12 [Example 85, (11S,14S,17S)-14-(4-Amino-butyl)-25-chloro-17-(1H-indol-3-ylmethyl)-16-methyl-11-(3-methyl-3H-imidazol-4-ylmethyl)-23-trifluoromethyl-2-thia-4,10,13,16,19-pentaaza-tricyclo[19.4.0.0*3,8*]pentacosa-1(25),3(8),4,6,21,23-hexaene-12,15,18-trione]
16 | 2 µg/mL (≈ 2.73 µM) | CNCCCC[C@@H]1NCc2ccccc2Sc2c(Cl)cccc2CNC(=O)[C@H](Cc2c[nH]c3ccccc23)N(C)C(=O)[C@H](CCCCN)NC1=O [Example 48, (12S,15S,18S)-15-(4-Amino-butyl)-4-chloro-12-(1H-indol-3-ylmethyl)-13-methyl-18-(4-methylamino-butyl)-2-thia-10,13,16,19-tetraaza-tricyclo[19.4.0.0*3,8*]pentacosa-1(21),3,5,7,22,24-hexaene-11,14,17-trione]
